PubChem BioAssay AID294 (DTP/NCI, 2004)
Values joined by “and” are separate entries in the source; they are usually repeats but may differ in a detail not shown here. Equal values may be shown once.

Tested on: MX-1 breast xenograft, nude mice, tumor weight change
Assay: NCI In Vivo Anticancer Drug Screen. Data for tumor model Human Mammary Carcinoma MX-1 Xenograft (subcutaneous) in NU/NU Swiss (nude) mice
Details: endpoint: optimum tumor weight change, higher = larger tumour
Experimental: The antitumor activity of compounds was measured in mice bearing transplantable tumors. Survival or tumor size were measured and the results are expressed as the measurement made in the treated group (T) divided by the measurement made in the vehicle treated control group (C). The tumor model used in this assay is Human Mammary Carcinoma MX-1 Xenograft (subcutaneous) in NU/NU Swiss (nude) mice

[1] = dose: 400.0 mg/kg/injection, schedule: Q04DX003 (ip), vehicle: suspension in saline
[2] = dose: 800.0 mg/kg/injection, schedule: Q04DX003 (ip), vehicle: suspension in saline
[3] = dose: 50.0 mg/kg/injection, schedule: Q04DX003 (ip), vehicle: Klucel (hydroxypropylcellulose) (HPC)
[4] = dose: 100.0 mg/kg/injection, schedule: Q04DX003 (ip), vehicle: Klucel (hydroxypropylcellulose) (HPC)
[5] = dose: 25.0 mg/kg/injection, schedule: Q04DX003 (ip), vehicle: Klucel (hydroxypropylcellulose) (HPC)
[6] = dose: 4.0 mg/kg/injection, schedule: Q04DX003 (ip), vehicle: saline
[7] = dose: 8.0 mg/kg/injection, schedule: Q04DX003 (ip), vehicle: saline
[8] = dose: 25.0 mg/kg/injection, schedule: Q04DX003 (ip), vehicle: saline

Structure (SMILES): COC1C(C)OC(OC2CC(C)(O)Cc3cc4c(c(O)c32)C(=O)c2c(O)cc3c(c2C4=O)OC2OC3(C)C(O)C(N(C)C)C2O)C(OC)C1(C)OC (configuration not stated)
- T/C (dose: 5.0 mg/kg/injection, schedule: Q04DX003 (ip), vehicle: Klucel (hydroxypropylcellulose) (HPC)): 204 % of control
- T/C (dose: 10.0 mg/kg/injection, schedule: Q04DX003 (ip), vehicle: Klucel (hydroxypropylcellulose) (HPC)): 207 % of control

Structure (SMILES): CCCCNCCCNCCCNC(=O)c1csc(-c2csc(CCNC(=O)C(NC(=O)C(C)C(O)C(C)NC(=O)C(NC(=O)c3nc(C(CC(N)=O)NCC(N)C(N)=O)nc(N)c3C)C(OC3OC(CO)C(O)C(O)C3OC3OC(CO)C(O)C(OC(N)=O)C3O)c3cnc[nH]3)C(C)O)n2)n1 (configuration not stated)
- T/C (dose: 7.5 mg/kg/injection, schedule: Q04DX003 (ip), vehicle: saline): 49 % of control and 57 % of control
- T/C (dose: 30.0 mg/kg/injection, schedule: Q04DX003 (ip), vehicle: saline): 29 % of control (2×) and 49 % of control
- T/C (dose: 60.0 mg/kg/injection, schedule: Q04DX003 (ip), vehicle: saline): 5 % of control and 12 % of control and 18 % of control
- T/C (dose: 120.0 mg/kg/injection, schedule: Q04DX003 (ip), vehicle: saline): 2 % of control

Structure (SMILES): CN(C)C=O
- T/C [1]: 44 % of control
- T/C [2]: 53 % of control
- T/C (dose: 1600.0 mg/kg/injection, schedule: Q04DX003 (ip), vehicle: suspension in saline): 57 % of control

Structure (SMILES): CN(C)N=Nc1cccc(C(N)=O)c1
- T/C [3]: 102 % of control
- T/C [4]: 87 % of control
- T/C (dose: 400.0 mg/kg/injection, schedule: Q04DX003 (ip), vehicle: Klucel (hydroxypropylcellulose) (HPC)): 81 % of control

Structure (SMILES): CS(=O)(=O)OCCN(CCOS(C)(=O)=O)c1ccc(C=Nc2ccc(-c3csc(COc4ccccc4)n3)cc2)cc1
- T/C [5]: 45 % of control
- T/C [3]: 64 % of control
- T/C [4]: 99 % of control

Structure (SMILES): COC1C(O)CC(OC2CC(OC3CC(O[C@@H]4C(=O)c5c(cc6cc(OC7CC(OC8CC(O)C(O)C(C)O8)C(O)C(C)O7)c(C)c(O)c6c5O)C[C@H]4[C@H](OC)C(=O)[C@@H](O)[C@@H](C)O)OC(C)C3O)OC(C)C2O)OC1C (some centres not stated)
- T/C (dose: 0.75 mg/kg/injection, schedule: Q04DX003 (ip), vehicle: saline): 90 % of control and 95 % of control

Structure (SMILES): CC[C@](O)(C(=O)O)c1cc2n(c(=O)c1CO)Cc1cc3ccccc3nc1-2
- T/C (dose: 4.5 mg/kg/injection, schedule: Q04DX003 (ip), vehicle: saline): 122 % of control
- T/C (dose: 9.0 mg/kg/injection, schedule: Q04DX003 (ip), vehicle: saline): 97 % of control
- T/C (dose: 16.0 mg/kg/injection, schedule: Q04DX003 (ip), vehicle: saline): 44 % of control
- T/C (dose: 18.0 mg/kg/injection, schedule: Q04DX003 (ip), vehicle: saline): 59 % of control
- T/C (dose: 36.0 mg/kg/injection, schedule: Q04DX003 (ip), vehicle: saline): 70 % of control

Structure (SMILES): O=C[C@@H](CO)O[C@H](C=O)n1cnc2c(=O)[nH]cnc21
- T/C (dose: 400.0 mg/kg/injection, schedule: Q04DX003 (ip), vehicle: saline): 29 % of control

Structure (SMILES): Cc1c(N)nc(C(CC(N)=O)NCC(N)C(N)=O)nc1C(=O)NC(C(=O)NC(C)C(O)CC(=O)NC(C(=O)NC(OC1OC(C)C(N)C(O)C1O)C(O)c1nc(-c2nc(C(=O)NCCCC(N)CC(=O)NCCCNCCCCN)cs2)cs1)C(C)O)C(OC1OC(CO)C(O)C(O)C1OC1OC(CO)C(O)C(OC(N)=O)C1O)c1cnc[nH]1 (configuration not stated)
- T/C [6]: 28 % of control
- T/C [7]: 11 % of control

Structure (SMILES): OC(C1CO1)C(O)C1CO1 (configuration not stated)
- T/C (dose: 1.0 mg/kg/injection, schedule: Q04DX003 (ip), vehicle: saline): 70 % of control

Structure (SMILES): C1OC1CN1CCN(CC2CO2)CC1 (configuration not stated)
- T/C (dose: 12.5 mg/kg/injection, schedule: Q04DX003 (ip), vehicle: saline): 91 % of control
- T/C [8]: 79 % of control

Structure (SMILES): Cc1c(N)nc([C@H](CC(N)=O)NC[C@H](N)C(N)=O)nc1C(=O)N[C@H](C(=O)N[C@H](C)[C@@H](O)CC(=O)N[C@H](C(=O)NC(O[C@@H]1O[C@@H](C)[C@@H](N)[C@@H](O)[C@H]1O)C(O)c1nc(-c2nc(C(=O)NCCCCN)cs2)cs1)[C@@H](C)O)[C@@H](O[C@@H]1O[C@@H](CO)[C@@H](O)[C@H](O)[C@@H]1O[C@H]1O[C@H](CO)[C@@H](O)[C@H](OC(N)=O)[C@@H]1O)c1c[nH]cn1 (some centres not stated)
- T/C (dose: 2.0 mg/kg/injection, schedule: Q04DX003 (ip), vehicle: saline): 84 % of control
- T/C [6]: 47 % of control
- T/C [7]: 42 % of control
- T/C (dose: 32.0 mg/kg/injection, schedule: Q04DX003 (ip), vehicle: saline): 7 % of control and 21 % of control and 29 % of control
- T/C (dose: 64.0 mg/kg/injection, schedule: Q04DX003 (ip), vehicle: saline): 32 % of control

Structure (SMILES): CSc1cc(=O)n2c3ccccc3c3ccnc1c32
- T/C (dose: 10.0 mg/kg/injection, schedule: Q04DX003 (ip), vehicle: saline with Tween-80): 61 % of control
- T/C (dose: 20.0 mg/kg/injection, schedule: Q04DX003 (ip), vehicle: saline with Tween-80): 50 % of control and 67 % of control
- T/C (dose: 80.0 mg/kg/injection, schedule: Q04DX003 (ip), vehicle: saline with Tween-80): 27 % of control

Structure (SMILES): CC(=O)OCC1OC(n2ccc(N)nc2=O)C(OC(C)=O)C1OC(C)=O (configuration not stated)
- T/C (dose: 100.0 mg/kg/injection, schedule: Q04DX003 (ip), vehicle: suspension in saline): 60 % of control
- T/C (dose: 200.0 mg/kg/injection, schedule: Q04DX003 (ip), vehicle: suspension in saline): 62 % of control
- T/C [1]: 39 % of control
- T/C [2]: 39 % of control

Structure (SMILES): N[C@H](C(=O)O)[C@@H]1CC(Cl)=NO1
- T/C [8]: 19 % of control
- T/C (dose: 50.0 mg/kg/injection, schedule: Q04DX003 (ip), vehicle: saline): 12 % of control
- T/C (dose: 100.0 mg/kg/injection, schedule: Q04DX003 (ip), vehicle: saline): 5 % of control
- T/C (dose: 200.0 mg/kg/injection, schedule: Q04DX003 (ip), vehicle: saline): 1 % of control

Structure (SMILES): CC1CCC(NC(=O)N(CCCl)N=O)CC1 (configuration not stated)
- T/C [5]: 50 % of control

Structure (SMILES): CN(C)c1nc(N(C)C)nc(N(C)C)n1
- T/C [3]: 59 % of control
- T/C (dose: 60.0 mg/kg/injection, schedule: Q01DX005 (ip), vehicle: Klucel (hydroxypropylcellulose) (HPC)): 15 % of control
- T/C (dose: 60.0 mg/kg/injection, schedule: Q07DX005 (ip), vehicle: Klucel (hydroxypropylcellulose) (HPC)): 42 % of control
- T/C [4]: 47 % of control
- T/C (dose: 120.0 mg/kg/injection, schedule: Q01DX005 (ip), vehicle: Klucel (hydroxypropylcellulose) (HPC)): 1 % of control
- T/C (dose: 120.0 mg/kg/injection, schedule: Q04DX005 (ip), vehicle: Klucel (hydroxypropylcellulose) (HPC)): -38 % of control
- T/C (dose: 200.0 mg/kg/injection, schedule: Q04DX003 (ip), vehicle: Klucel (hydroxypropylcellulose) (HPC)): 1 % of control
- T/C (dose: 240.0 mg/kg/injection, schedule: Q07DX005 (ip), vehicle: Klucel (hydroxypropylcellulose) (HPC)): -99 % of control
